Results published in patent publication US20260327216A1, “SUBSTITUTED OXAZOLONE COMPOUND FOR DECREASING LEVELS OF IKZF I-4 PROTEINS” (BRISTOL-MYERS SQUIBB COMPANY, priority 2023, published 2026).

Experiments:
Assay type in all cases: cell-based
IKZF2 Helios = IKZF2 Helios (Homo sapiens, UniProt Q96SW2+Q9UKS7); assay: Human Regulatory T Cell Degradation Assay, IKZF2; design: endogenous in cells; host or cells: FACS-sorted human CD4+CD127lowCD25+ Treg cells from healthy leukopaks; settings: human regulatory T cells, 20 hours; for Dmax: Regulatory T cell, 100% = complete degradation, read-out: IKZF2 Helios max % deg. observed
Method: (§1) Cryopreserved human regulatory T cells were thawed in RPMI+10% FBS+20 ng/mL IL-2. After being spun at 1200 rpm for 5 mins, the cells were resuspended in RPMI+10% FBS+20 ng/mL and rested at 37° C. with 5% CO2 for 3 hours. The cells were then plated at 40,000 cells/well in 40 μL RPMI+10% FBS+20 ng/ml human IL-2 in a 384 well cell culture plate prior to using acoustic dispensing technology (ECHO 555) for adding compounds of interest. Cell cultures were incubated for 20 hours at 37° C. and 5% CO2. In order to facilitate analysis, cell cultures were spun down at 1200 rpm for 5 minutes and the supernatant was discarded using an EL406 plate washer. After washing three times with 70 μL PBS, cell pellets were resuspended in 50 μL of near IR viability staining solution (Life Technologies, Cat #L34975) and incubated for 30 minutes on ice protected from light. Cells were washed three times with 70 μL PBS+0.5% BSA using an EL406 plate washer. After shaking the plate to dislodge the cell pellet, cells were resuspended in 50 μL of Fixation Buffer (eBioScience FoxP3 buffer set 00-5523-00) for 60 minutes at room temperature. After centrifuging and discarding the supernatant, cells were permeabilized with 50 μL of permeabilization buffer (eBioScience FoxP3 buffer set 00-5523-00) for 10 minutes at room temperature. Following permeabilization, cells were spun down and the supernatant was replaced with 30 μL fluorescently labelled antibodies against the intracellular targets Helios (Helios-APC [BioLegend, Cat #137222, 1:50])]), Aiolos, and Ikaros 1× Permeabilization buffer and staining reactions were incubated for 1 bour at room temperature; protected from light. Subsequently, 30 μL of 1× Permeabilization buffer was added prior to centrifuging the cells and discarding the supernatant. Stained cells were resuspended in 30 μL of flow cytometry staining buffer (PBS+0.5% BSA) and analyzed using an Intellicyt Ique Plus flow cytometer.
(§2) Table B-1 lists the maximum observed degradation of the IKZF1 protein and IKZF2 protein as measured in the Human Regulatory T Cell Degradation assay. The results in Table B-1 were rounded to two digits. In the Human Regulatory T Cell Degradation assay, a value of 100% indicated no detectable protein remaining or complete degradation of the protein; and a value of 0% indicated no detectable degradation of the protein by the test compound.

IKZF3 Aiolos = IKZF3 Aiolos (Homo sapiens, UniProt Q96SW2+Q9UKT9); assay: Jurkat Cellular Degradation Assay, IKZF3; design: endogenous in cells; settings: Jurkat cells, 72 h; for Dmax: human, 100% = complete degradation, 0% = no detectable degradation, read-out: IKZF3 Aiolos max % deg. observed
Method: Jurkat cells were plated at 80,000 cells/well in 40 μL RPMI+10% FBS in a 384-well cell culture plate prior to using acoustic dispensing technology for adding a compound of interest. Cell cultures were incubated for 72 h at 37° C. and 5% CO2. In order to facilitate analysis, cell cultures were spun down at 200 rpm for 5 min and the supernatant was discarded. After shaking the plate to dislodge the cell pellet, cells were resuspended in 50 μL of Fixation Buffer (eBioscience FoxP3 buffer set 00-5523-00) for 60 min at room temperature. After centrifuging and discarding the supernatant, cells were permeabilized with 50 μL of Permeabilization buffer (eBioscience FoxP3 buffer set 00-5523-00) for 10 min at room temperature. Following permeabilization, cells were spun down and the supernatant was replaced with 20 μL fluorescently labelled antibodies against Helios, Ikaros and Aiolos or corresponding Isotype controls in 1× Permeabilization buffer (Ikaros-Alexa488 [Biolegend, Cat #368408, 1:50], Helios-PE [CST, Cat #29360, 1:50], Aiolos-Alexa647 [Biolegend, Cat #371106 Biolegend, 1:25]) and staining reactions were incubated for 1 h at room temperature while protected from light. Subsequently, 30 μL of 1× Permeabilization buffer was added prior to centrifuging the cells and discarding the supernatant. Stained cells were resuspended in 25 μL of flow cytometry staining buffer [PBS+0.2% bovine serum albumin (BSA)] and analyzed using an Intellicyt Ique Plus flow cytometer.
as §2, with “Table A-1” for “Table B-1”, “IKZF1 protein, IKZF2 protein,” for “IKZF1 protein”, “and IKZF3” for “and IKZF2”, “the Jurkat Cellular” for “the Human Regulatory T Cell”

IKZF1 Ikaros = IKZF1 Ikaros (Homo sapiens, UniProt Q13422+Q96SW2); assay: Human Regulatory T Cell Degradation Assay, IKZF1; design: Cryopreserved healthy donor human peripheral blood mononuclear cells (PBMC); endogenous in cells; host or cells: human PBMC from healthy donors (CD8+ T cells by flow cytometry); settings: human regulatory T cells, 20 hours; for Dmax: Regulatory T cell, 100% = complete degradation, read-out: IKZF1 Ikaros max % deg. observed; for DC50: concentration reducing protein level by 50% vs DMSO
Method: as §1, §2

[1] = concentration reducing protein level by 50% vs DMSO

Chain of IKZF2 Helios (Q9UKS7 whole entry): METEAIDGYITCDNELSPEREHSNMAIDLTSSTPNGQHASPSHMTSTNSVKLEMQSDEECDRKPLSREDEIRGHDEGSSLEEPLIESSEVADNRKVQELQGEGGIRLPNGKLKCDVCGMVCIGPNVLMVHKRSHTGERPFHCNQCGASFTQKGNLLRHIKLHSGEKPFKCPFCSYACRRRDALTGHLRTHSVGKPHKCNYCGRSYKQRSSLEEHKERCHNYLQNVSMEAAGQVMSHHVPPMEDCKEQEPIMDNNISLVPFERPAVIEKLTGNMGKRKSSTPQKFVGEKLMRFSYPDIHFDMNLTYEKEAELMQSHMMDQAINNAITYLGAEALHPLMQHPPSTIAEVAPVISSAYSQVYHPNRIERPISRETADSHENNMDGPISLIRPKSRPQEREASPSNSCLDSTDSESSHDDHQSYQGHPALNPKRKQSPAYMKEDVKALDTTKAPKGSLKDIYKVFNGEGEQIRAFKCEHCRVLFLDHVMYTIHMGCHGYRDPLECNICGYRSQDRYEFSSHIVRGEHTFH
Chain of IKZF2 Helios (Q96SW2 whole entry): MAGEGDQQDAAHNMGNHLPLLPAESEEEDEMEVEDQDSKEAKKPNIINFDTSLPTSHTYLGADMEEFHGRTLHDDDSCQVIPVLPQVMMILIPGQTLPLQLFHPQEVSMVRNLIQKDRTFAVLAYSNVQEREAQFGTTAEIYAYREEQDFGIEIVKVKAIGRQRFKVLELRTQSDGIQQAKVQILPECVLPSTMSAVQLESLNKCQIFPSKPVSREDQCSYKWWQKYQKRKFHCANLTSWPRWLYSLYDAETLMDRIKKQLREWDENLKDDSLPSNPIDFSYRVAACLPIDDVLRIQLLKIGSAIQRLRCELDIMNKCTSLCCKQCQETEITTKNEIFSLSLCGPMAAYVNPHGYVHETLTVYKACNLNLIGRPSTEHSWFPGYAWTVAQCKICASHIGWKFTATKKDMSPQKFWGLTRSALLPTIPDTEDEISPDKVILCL
Chain of IKZF2 Helios (Q16531 whole entry partner): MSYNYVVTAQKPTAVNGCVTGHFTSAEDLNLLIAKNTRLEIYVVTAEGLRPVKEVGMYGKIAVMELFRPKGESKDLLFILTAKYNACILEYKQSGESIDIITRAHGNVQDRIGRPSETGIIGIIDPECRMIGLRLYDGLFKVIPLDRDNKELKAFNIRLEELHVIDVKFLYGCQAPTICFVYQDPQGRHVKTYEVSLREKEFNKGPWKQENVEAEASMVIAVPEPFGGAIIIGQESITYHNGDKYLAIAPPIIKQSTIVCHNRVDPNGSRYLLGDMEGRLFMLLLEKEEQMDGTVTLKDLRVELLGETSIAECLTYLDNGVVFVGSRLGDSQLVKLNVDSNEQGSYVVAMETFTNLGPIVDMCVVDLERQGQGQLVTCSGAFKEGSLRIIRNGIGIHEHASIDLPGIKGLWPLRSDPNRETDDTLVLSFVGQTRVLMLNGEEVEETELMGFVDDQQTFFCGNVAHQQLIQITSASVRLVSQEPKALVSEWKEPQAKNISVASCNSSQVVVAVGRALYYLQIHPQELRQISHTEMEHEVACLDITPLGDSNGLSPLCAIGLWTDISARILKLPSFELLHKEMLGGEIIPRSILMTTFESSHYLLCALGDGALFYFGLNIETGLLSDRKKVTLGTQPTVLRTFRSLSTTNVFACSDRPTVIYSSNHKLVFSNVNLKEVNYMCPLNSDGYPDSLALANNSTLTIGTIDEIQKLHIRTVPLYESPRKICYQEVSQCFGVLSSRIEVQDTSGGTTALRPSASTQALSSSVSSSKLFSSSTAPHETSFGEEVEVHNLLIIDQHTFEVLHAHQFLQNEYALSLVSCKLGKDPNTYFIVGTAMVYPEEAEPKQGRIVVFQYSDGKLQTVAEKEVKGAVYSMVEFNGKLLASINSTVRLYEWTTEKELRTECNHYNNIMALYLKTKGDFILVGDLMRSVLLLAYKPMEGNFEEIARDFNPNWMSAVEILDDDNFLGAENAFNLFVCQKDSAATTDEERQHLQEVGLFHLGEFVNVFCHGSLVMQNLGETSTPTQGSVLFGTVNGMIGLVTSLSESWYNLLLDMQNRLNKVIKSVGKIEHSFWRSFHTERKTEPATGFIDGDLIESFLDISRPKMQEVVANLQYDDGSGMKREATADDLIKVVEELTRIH
Chain of IKZF1 Ikaros (Q13422 whole entry): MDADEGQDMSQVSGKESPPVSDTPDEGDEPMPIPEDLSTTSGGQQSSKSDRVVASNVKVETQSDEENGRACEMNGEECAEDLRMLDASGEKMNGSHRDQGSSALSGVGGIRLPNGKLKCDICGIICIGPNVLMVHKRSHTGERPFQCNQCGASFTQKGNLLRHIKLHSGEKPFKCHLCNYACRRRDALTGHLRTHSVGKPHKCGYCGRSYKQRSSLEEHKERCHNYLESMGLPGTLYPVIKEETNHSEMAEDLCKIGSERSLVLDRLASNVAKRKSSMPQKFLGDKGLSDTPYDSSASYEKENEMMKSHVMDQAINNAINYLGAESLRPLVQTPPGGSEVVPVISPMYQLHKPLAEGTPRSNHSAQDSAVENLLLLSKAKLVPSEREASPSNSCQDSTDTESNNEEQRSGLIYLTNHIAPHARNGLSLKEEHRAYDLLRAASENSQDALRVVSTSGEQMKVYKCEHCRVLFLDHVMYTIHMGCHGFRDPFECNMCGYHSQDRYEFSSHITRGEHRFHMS
Chain of IKZF1 Ikaros (Q96SW2 whole entry): as the sequence (Q96SW2 whole entry) above
Chain of IKZF1 Ikaros (Q16531 whole entry partner): as the sequence (Q16531 whole entry partner) above
Chain of IKZF3 Aiolos (Q9UKT9 whole entry): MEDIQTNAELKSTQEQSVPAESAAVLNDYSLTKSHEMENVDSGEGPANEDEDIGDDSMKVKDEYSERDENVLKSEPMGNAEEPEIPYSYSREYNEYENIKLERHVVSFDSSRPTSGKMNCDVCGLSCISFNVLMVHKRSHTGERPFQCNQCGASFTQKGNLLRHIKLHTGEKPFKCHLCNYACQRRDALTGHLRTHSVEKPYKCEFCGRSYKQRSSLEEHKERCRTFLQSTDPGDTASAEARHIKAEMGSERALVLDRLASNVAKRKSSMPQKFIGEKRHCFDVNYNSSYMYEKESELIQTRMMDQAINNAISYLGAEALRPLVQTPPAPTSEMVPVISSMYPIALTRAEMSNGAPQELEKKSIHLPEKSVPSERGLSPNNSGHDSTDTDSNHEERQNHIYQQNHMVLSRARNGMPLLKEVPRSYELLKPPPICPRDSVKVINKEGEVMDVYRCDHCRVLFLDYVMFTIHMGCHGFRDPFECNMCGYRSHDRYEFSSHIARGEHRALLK
Chain of IKZF3 Aiolos (Q96SW2 whole entry): as the sequence (Q96SW2 whole entry) above
Chain of IKZF3 Aiolos (Q16531 whole entry partner): as the sequence (Q16531 whole entry partner) above

Dmax (IKZF2 Helios) [%]	Dmax (IKZF3 Aiolos) [%]	Dmax (IKZF1 Ikaros) [%]	DC50 (IKZF1 Ikaros) [µM]	DC50 (IKZF2 Helios; [1]) [µM]	DC50 (IKZF3 Aiolos; [1]) [µM]	SMILES
57	46	24	> 10			O=C1CCC(n2cc(-c3ccccc3)oc2=O)C(=O)N1 (stereo not shown) [Comparative Compound A, 3-(2-oxo-5-phenyloxazol-3(2H)-yl)piperidine-2,6-dione]
25	15	47				O=C1CCC(n2cc(-c3ccc(Br)cc3F)oc2=O)C(=O)N1 (stereo not shown) [Comparative Compound B, 3-(5-(4-bromo-2-fluorophenyl)-2-oxooxazol-3(2H)-yl)piperidine-2,6-dione]
90	52	46	> 10	0.00068	9.01	Cc1cc(-c2ccc(-c3cn(C4CCC(=O)NC4=O)c(=O)o3)c(F)c2)nc(N)c1OC(F)F (stereo not shown) [Example 1, 3-(5-(4-(6-Amino-5-(difluoromethoxy)-4-methylpyridin-2-yl)-2-fluorophenyl)-2-oxooxazol-3(2H)-yl)piperidine-2,6-dione]
